Data published in patent US10968169B2, “Urea derivative” (Daiichi Sankyo Company, Limited, priority 2016, dated 2021).

Columns and labels:
[1] = molecular target: tryptophanase of Bacteroides thetaiotamicron (Bacteroides thetaiotaomicron, UniProt Q8A7N2); test: Tryptophanase enzyme inhibitory activity (LDH-coupled NADH loss); type: biochemical; conditions: L-tryptophan 10 mM, 37° C., absorbance at 340 nm; read-out: Bacteroides Activity of Inhibiting Tryptophanase (IC50)
Protocol: Tryptophanase inhibitory activity was evaluated by a method using lactate dehydrogenase (LDH). The reaction time-dependent reduction in NADH conjugated with the enzymatic reaction, with LDH, of pyruvic acid produced through the enzymatic reaction of L-tryptophan as a substrate with tryptophanase, was measured with a spectrophotometer (Phillips-R S et al., Biochemistry, 23, 6228-6234 (1984)). Enzyme inhibitory activity obtained without adding a test compound (by adding DMSO alone) in the presence of tryptophanase was used as a control. As the enzyme, tryptophanase of Bacteroides thetaiotamicron (Genbank accession number: HC914434.1) was used. A test compound solution was prepared by dissolving each test compound in DMSO in an arbitrary concentration (from 30 mM to 30 nM at 10-fold common ratio). LDH, NADH and L-tryptophan were prepared, using distilled water, respectively to concentrations of 80 units/mL, 10 mM and […]. Bacteroides tryptophanase was prepared to 30 mg/mL. A potassium phosphate buffer was used as the buffer. [table] A reaction solution A was dispensed at 284.8 μL per well into a 96-well plate, and the test compound solution was added at 3.2 μL per well to obtain a final concentration of 1/100 (reaction solution B). The reaction solution B was incubated at 37° C. for 30 minutes, L-tryptophan was added thereto at 32 μL per well to obtain a final concentration of 10 mM (reaction solution C), and the enzyme reaction was performed at 37° C. over 30 minutes with absorbance at 340 nm measured for monitoring the NADH loss. Based on the NADH loss, the tryptophanase inhibitory activity of the compound was evaluated. Besides, the following compounds were similarly tested instead of the test compound.

[2] = tested on: Bacteroides; test: Indole production suppressing effect in viable bacteria; type: cell-based; conditions: Bacteroides, indole concentration in culture supernatant, read-out: Eroides Activity of Inhibiting Indole Production(IC50)
Protocol: The effect of a tryptophanase inhibitory compound to suppress indole production from a viable bacterium can be evaluated through the following operation. When E. coli (Escherichia Coli) is used as a strain known to produce indole, the strain is cultured in an LB medium at 37° C. for 12 to 18 hours under anaerobic conditions, and then, suspended in an assay medium (5 mM L-Tryptophan/PBS(+)/25 mM HEPES (pH8)) in such a manner as to obtain O.D. of about 0.3. When bacteroides is used, the strain is cultured in a modified GAM medium at 37° C. for 12 to 18 hours under anaerobic conditions, and then suspended in an assay medium (5 mM L-Tryptophan/PBS(+)/25 mM HEPES (pH8)) in such a manner as to obtain O.D. of about 1.1. The thus obtained viable bacterial suspension prepared to have a final concentration of a compound of 1 μM to 10 mM is dispensed at 200 μL per well into a 96-well plate and cultured at 37° C. for 2 to 4 hours under anaerobic conditions, and O.D., an ATP concentration (that can be quantitatively determined by using BacTiter-Glo (Promega Corporation)) and an indole concentration in the culture supernatant (that can be quantitatively determined by utilizing Ehrlich reaction) are measured. The effect of the tryptophanase inhibitory compound to suppress indole production from a viable bacterium can be evaluated depending on the degree of lowering of the indole concentration in the culture supernatant. It can be checked whether or not the effect is derived from a function other than tryptophanase inhibition, such as a bactericidal function or a bacterial growth inhibitory function, depending on lowering of the O.D. or reduction in the ATP concentration or by performing a generally practiced antibacterial activity test (a MIC (minimum growth inhibition concentration) test) using levofloxacin or the like as a positive control. The activities of inhibiting indole production of the compounds of the respective examples shown in Table 11 were measured by the above-described method using Bacteroides to evaluate the effect of inhibiting indole production.

[3] = tested on: indoxyl sulfate concentration in the plasma; test: Effect of reducing indoxyl sulfate concentration in the plasma of mice; type: in vivo, male BALB/c mouse; conditions: oral
Protocol: An effect of a tryptophanase inhibitory compound to reduce an indoxyl sulfate concentration in the plasma of a mouse can be evaluated through the following operation.
After fasting a male BALB/c mouse overnight, a tryptophanase compound dissolved or suspended at a concentration of 0.01 to 10 mg/mL in a 0.5% methylcellulose (MC) solution used as a solvent and a 0.5% MC solution are orally administered by gavage at a dose of 10 mL/kg respectively to a test compound group and to a solvent control group. When 30 minutes have elapsed after the administration of the test compound or the solvent, L-tryptophan, that is, a substrate of tryptophanase, is orally administered by gavage at a dose of 1 to 3 g/kg. The L-tryptophan is suspended in a 0.5% tragacanth solution. For 12 hours after the administration of the L-tryptophan, blood is collected over time from a tail vein by using a hematocrit tube. The thus obtained blood is centrifuged at 11,000 rpm for 5 minutes to collect plasma, and the indoxyl sulfate concentration in the plasma is measured singly by liquid chromatography (fluorescence detection) or its combination with a mass spectrometer used subsequently. The indoxyl sulfate concentration in the plasma of the test compound group against the indoxyl sulfate concentration in the plasma of the solvent control group is calculated as, for example, a ratio of the area under a curve of the indoxyl sulfate concentration, and thus, the efficacy of each compound in a living body can be compared.
The indoxyl sulfate concentrations in plasma obtained by using the compounds of the respective examples shown in Table 12 below were measured by the above-described method to evaluate the effect of reducing indoxyl sulfate concentration.

Sequence of tryptophanase of Bacteroides thetaiotamicron (Q8A7N2 entry or part of it, change not shown): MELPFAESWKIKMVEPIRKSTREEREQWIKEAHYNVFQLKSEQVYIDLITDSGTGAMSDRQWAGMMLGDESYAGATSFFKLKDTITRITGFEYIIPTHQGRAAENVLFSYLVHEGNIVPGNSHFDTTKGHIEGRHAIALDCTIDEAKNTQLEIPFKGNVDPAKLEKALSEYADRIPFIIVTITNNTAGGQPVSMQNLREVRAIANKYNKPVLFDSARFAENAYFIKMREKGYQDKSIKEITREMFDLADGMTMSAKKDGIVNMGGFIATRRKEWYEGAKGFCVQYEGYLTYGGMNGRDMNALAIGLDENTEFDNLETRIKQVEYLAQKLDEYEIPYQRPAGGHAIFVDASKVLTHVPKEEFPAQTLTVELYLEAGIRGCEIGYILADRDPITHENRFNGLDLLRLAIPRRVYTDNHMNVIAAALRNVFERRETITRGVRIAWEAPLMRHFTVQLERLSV

| IC50 [1] | Structure (SMILES) | IC50 [2] | Indoxyl Sulfate Reduction Effect in Male BALB/c Mouse Plasma (Indoxyl sulfate reduction effect in plasma 6 hours after administering L-tryptophan: ED75−, mg/kg) [3] |
| --- | --- | --- | --- |
| 13.5 µM | CC[C@@](C)(NC(=O)Nc1ccc(OC(F)F)c(F)c1)C(=O)O [Example 15, (−)-N-{[4-(Difluoromethoxy)-3-fluorophenyl]carbamoyl}-D-isovaline] | 14 µM | 1 mg/kg |
| 16 µM | CCC(CC)(NC(=O)Nc1ccc(Cl)cc1)C(=O)O [Compound C, 2-{[(4-chlorophenyl)carbamoyl]amino}-2-ethylbutanoic acid] | 6 µM | >1 mg/kg |
| 16.5 µM | CCC(CC)(NC(=O)Nc1cccc(C#N)c1)C(=O)O [Compound F, 2-{[(3-cyanophenyl)carbamoyl]amino}-2-ethylbutanoic acid] | 12 µM | 1 mg/kg |
